# Test results: PMC7413254 (Nature Communications, 2020)
# Like-named read-outs stand apart in the source and are kept apart here.
# Tests used:
# Format in all cases: cell-based
# PfCRT^Ecu1110 [1] = molecular target: T1, PfCRT^Ecu1110 (Plasmodium falciparum, UniProt Q9N623, A220S/I356L/K76T/N326D); assay: [3H]CQ uptake into Xenopus oocytes, cis-inhibition by unlabelled solute
# Outline: (§1)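 ND96, pH 5.5, 1.5 h, 27.5 °C; uptake direction acidic outside → oocyte cytosol, mimicking efflux from digestive vacuole. Ice-cold wash stop, 10% SDS lysis, scintillation counting. Ten oocytes/treatment, ≥4 independent experiments.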
# PfCRT^Dd2 [2] = molecular target: T2, PfCRT^Dd2 (Plasmodium falciparum, UniProt Q9N623, A220S/I356T/K76T/M74I/N326S/N75E/Q271E/R371I); assay: as above
# Outline: as §1
# PfCRT^Ecu1110 [3] = molecular target: T1, PfCRT^Ecu1110; assay: cell-based; details: […]
# Outline: (§2)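 Oocytes (ten per treatment, ≥4 independent frogs/days) were preloaded by injecting VF-6 in 25 nL ND96 at pH 5.0, 5.5, 6.0 or 7.0, or Na^+-free choline buffer, then uptake run 1.5 h, 27.5 °C, ND96 pH 5.5 by default. Internal concentrations assumed ~400 nL oocyte volume.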
# PfCRT^Dd2 [4] = molecular target: T2, PfCRT^Dd2; assay: cell-based; details: […]
# Outline: as §2
# [5] = read-out: PfCRT-mediated [3H]CQ transport, cis-inhibition (% PfCRTEcu1110 control)
# [6] = read-out: Uptake of [3H]CQ (% PfCRTDd2 control), cis-inhibition, PfCRTEcu1110, SEM
# [7] = read-out: Uptake of [3H]CQ (% PfCRTEcu1110 control), cis-inhibition
# [8] = read-out: [3H]CQ transport (% PfCRTEcu1110 control), cis-inhibition, PfCRTEcu1110, SEM
# [9] = read-out: PfCRT-mediated [3H]CQ transport, cis-inhibition (% PfCRTDd2 control)
# [10] = read-out: Uptake of [3H]CQ (% PfCRTDd2 control), cis-inhibition
# [11] = read-out: Uptake of [3H]CQ (% PfCRTDd2 control), cis-inhibition, PfCRTDd2, SEM
# [12] = read-out: [3H]CQ transport (% PfCRTDd2 control), cis-inhibition, PfCRTDd2, SEM
# T2 sequence (Q9N623 whole entry A220S/I356T/K76T/M74I/N326S/N75E/Q271E/R371I): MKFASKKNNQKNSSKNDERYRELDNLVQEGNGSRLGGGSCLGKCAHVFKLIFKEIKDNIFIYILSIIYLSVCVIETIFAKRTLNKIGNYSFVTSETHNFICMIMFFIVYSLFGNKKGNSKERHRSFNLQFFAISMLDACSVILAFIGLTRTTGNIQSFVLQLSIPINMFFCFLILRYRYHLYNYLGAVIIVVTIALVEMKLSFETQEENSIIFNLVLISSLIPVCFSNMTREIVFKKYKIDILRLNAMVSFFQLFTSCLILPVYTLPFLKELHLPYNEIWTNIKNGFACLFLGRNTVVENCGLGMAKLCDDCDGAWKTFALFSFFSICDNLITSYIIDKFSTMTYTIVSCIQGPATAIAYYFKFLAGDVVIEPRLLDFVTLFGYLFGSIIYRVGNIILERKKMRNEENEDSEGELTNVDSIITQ
# T1 sequence (Q9N623 whole entry A220S/I356L/K76T/N326D): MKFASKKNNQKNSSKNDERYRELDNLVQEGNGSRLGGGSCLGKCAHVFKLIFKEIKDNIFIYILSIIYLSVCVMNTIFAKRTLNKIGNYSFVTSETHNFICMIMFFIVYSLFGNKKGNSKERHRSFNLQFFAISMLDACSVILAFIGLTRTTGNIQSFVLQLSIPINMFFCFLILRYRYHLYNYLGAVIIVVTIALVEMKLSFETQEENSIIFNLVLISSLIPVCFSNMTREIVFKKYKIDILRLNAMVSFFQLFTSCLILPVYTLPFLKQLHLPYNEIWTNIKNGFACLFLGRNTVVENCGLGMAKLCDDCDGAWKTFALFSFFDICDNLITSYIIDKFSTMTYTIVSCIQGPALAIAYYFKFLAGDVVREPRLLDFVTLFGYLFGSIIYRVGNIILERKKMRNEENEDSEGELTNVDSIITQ
structure (smiles),measurement,setting,value
N[C@@H](CS)C(=O)O [L-cysteine],inhibition at 500 µM,PfCRT^Ecu1110 [1]; [5],94 ± 1.6%
same,inhibition at 1000 µM,PfCRT^Ecu1110 [1]; [5],87 ± 2.6%
same,inhibition at 2000 µM,PfCRT^Ecu1110 [1]; [5],98 ± 4.5%
same,inhibition at 500 µM,PfCRT^Ecu1110 [1]; [6],31 ± 1%
same,inhibition at 1000 µM,PfCRT^Ecu1110 [1]; [6],29 ± 1.5%
same,inhibition at 2000 µM,PfCRT^Ecu1110 [1]; [6],33 ± 1.4%
same,inhibition at 500 µM,PfCRT^Ecu1110 [1]; [7],95 ± 4.2%
same,inhibition at 1000 µM,PfCRT^Ecu1110 [1]; [7],89 ± 5.5%
same,inhibition at 2000 µM,PfCRT^Ecu1110 [1]; [7],100 ± 7.1%
same,inhibition at 500 µM,PfCRT^Ecu1110 [1]; [8],28 ± 1.1%
same,inhibition at 1000 µM,PfCRT^Ecu1110 [1]; [8],26 ± 1.5%
same,inhibition at 2000 µM,PfCRT^Ecu1110 [1]; [8],30 ± 1.7%
same,inhibition at 500 µM,PfCRT^Dd2 [2]; [9],94 ± 4.1%
same,inhibition at 1000 µM,PfCRT^Dd2 [2]; [9],95 ± 3.6%
same,inhibition at 2000 µM,PfCRT^Dd2 [2]; [9],95 ± 2.8%
same,inhibition at 500 µM,PfCRT^Dd2 [2]; [10],97 ± 9.2%
same,inhibition at 2000 µM,PfCRT^Dd2 [2]; [10],97 ± 3.1%
same,inhibition at 500 µM,PfCRT^Dd2 [2]; [11],97 ± 9.2%
same,inhibition at 1000 µM,PfCRT^Dd2 [2]; [11],96 ± 3.5%
same,inhibition at 2000 µM,PfCRT^Dd2 [2]; [11],97 ± 3.1%
same,inhibition at 1000 µM,PfCRT^Dd2 [2]; [12],95 ± 3.6%
same,inhibition at 2000 µM,PfCRT^Dd2 [2]; [12],95 ± 2.8%
same,activity at 5000 µM,"PfCRT^Ecu1110 [3]; pH 5.5, read-out: PfCRT-mediated [3H]CQ transport, trans-stimulation (% PfCRTEcu1110 control), [test solute]i = 5 mM (intracellular), PfCRTEcu1110 oocytes, normalised to oocyte type control",95 ± 3%
same,activity at 5000 µM,"PfCRT^Ecu1110 [3]; pH 5.5, read-out: Uptake of [3H]CQ (% PfCRTEcu1110 control), trans-stimulation, PfCRTEcu1110 oocytes, [test solute]i = 5 mM, total [3H]CQ transport, normalised to the oocyte type control",97 ± 4.2%
same,activity at 45000 µM,"PfCRT^Ecu1110 [3]; pH 5.5, read-out: Uptake of [3H]CQ (% PfCRTEcu1110 control), trans-stimulation, PfCRTEcu1110 oocytes, [test solute]i = 45 mM (30 mM for some solutes due to solubility), total [3H]CQ transport, normalised to the oocyte type control",100 ± 3.5%
same,activity at 5000 µM,"PfCRT^Ecu1110 [3]; read-out: Uptake of [3H]CQ (% PfCRTDd2 control), trans-stimulation, PfCRTEcu1110, total [3H]CQ transport, [test solute]i = 5 mM (intracellular), mean ± SEM, SEM",35 ± 1.4%
same,activity at 45000 µM,"PfCRT^Ecu1110 [3]; read-out: Uptake of [3H]CQ (% PfCRTDd2 control), trans-stimulation, PfCRTEcu1110, total [3H]CQ transport, [test solute]i = 45 mM (intracellular; 30 mM for some solutes due to solubility), mean ± SEM, SEM",36 ± 2.7%
same,activity at 5000 µM,"PfCRT^Dd2 [4]; pH 5.5, read-out: PfCRT-mediated [3H]CQ transport, trans-stimulation (% PfCRTDd2 control), [test solute]i = 5 mM (intracellular), PfCRTDd2 oocytes, normalised to oocyte type control",97 ± 2.6%
same,activity at 5000 µM,"PfCRT^Dd2 [4]; pH 5.5, read-out: Uptake of [3H]CQ (% PfCRTDd2 control), trans-stimulation, PfCRTDd2, total [3H]CQ transport, [test solute]i = 5 mM (intracellular), mean ± SEM, SEM",99 ± 3.2%
same,activity at 5000 µM,"PfCRT^Dd2 [4]; pH 5.5, read-out: Uptake of [3H]CQ (% PfCRTDd2 control), trans-stimulation, PfCRTDd2 oocytes, [test solute]i = 5 mM, total [3H]CQ transport, normalised to the oocyte type control",99 ± 3.2%
same,activity at 45000 µM,"PfCRT^Dd2 [4]; pH 5.5, read-out: Uptake of [3H]CQ (% PfCRTDd2 control), trans-stimulation, PfCRTDd2 oocytes, [test solute]i = 45 mM (30 mM for some solutes due to solubility), total [3H]CQ transport, normalised to the oocyte type control",101 ± 3.7%
